{"source": "ChEMBL document CHEMBL5131389", "about": "“PSMA-targeted small-molecule docetaxel conjugate: Synthesis and preclinical evaluation” (Eur J Med Chem, 2022)", "key": {"[1]": {"tested_on": "CWR22R", "assay": "Antitumor activity against human 22Rv1 cells xenografted in Balb/c nude mouse assessed as tumor growth inhibition at 10 mg/kg, ip administered once in two days for three times and measured 4 days after the end of treatment relative to control", "assay_type": "functional", "conditions": "22Rv1, 240 h, time 10 day, read-out: TGI"}, "[2]": {"assay": "Chronic toxicity in rat assessed as increase in creatinine concentration at 18.75 to 22.5 mg/kg, iv administered as pluronic F127 formulation at 4 intervals for 21 days and observed 3 weeks post last injection relative to control", "assay_type": "organism-based", "conditions": "in vivo, 2544 h, dose 18.75-22.5 mg/kg, time 106 day"}, "[3]": {"assay": "Chronic toxicity in rat assessed as increase in relative kidney weight at 18.75 mg/kg, iv administered as pluronic F127 formulation at 4 intervals for 21 days and observed 3 weeks post last injection", "assay_type": "organism-based", "conditions": "in vivo, 2544 h, time 106 day"}, "[4]": {"tested_on": "CWR22R", "assay": "Antitumor activity against human 22Rv1 cells xenografted in Balb/c nude mouse assessed as tumor growth inhibition at 10 mg/kg, ip administered once in two days for three times and measured 7 days after the end of treatment relative to control", "assay_type": "functional", "conditions": "22Rv1, 312 h, time 13 day, read-out: TGI"}, "[5]": {"assay": "Chronic toxicity in rat assessed as reduction in number of peeping into holes at 22.5 mg/kg, iv administered as pluronic F127 formulation at 4 intervals for 21 days and observed 3 weeks post last injection", "assay_type": "organism-based", "conditions": "in vivo, 2544 h, time 106 day"}, "[6]": {"tested_on": "CWR22R", "assay": "Antitumor activity against human 22Rv1 cells xenografted in Balb/c nude mouse assessed as tumor growth inhibition at 20 mg/kg, ip administered once in two days for three times and measured 4 days after the end of treatment relative to control", "assay_type": "functional", "conditions": "22Rv1, 240 h, time 10 day, read-out: TGI"}, "[7]": {"assay": "Acute toxicity in ICR mouse assessed as lethal dose administered intravenously as pluronic F127 formulation and measured for 14 days", "conditions": "in vivo, route iv, time 14 day"}, "[8]": {"assay": "Chronic toxicity in rat assessed as increase in relative mass of liver at 15 to 22.5 mg/kg, iv administered as pluronic F127 formulation at 4 intervals for 21 days and observed 3 weeks post last injection relative to control", "assay_type": "organism-based", "conditions": "in vivo, 2544 h, dose 15-22.5 mg/kg, time 106 day"}, "[9]": {"assay": "Acute toxicity in Wistar rat assessed as maximum tolerated dose administered intravenously as pluronic F127 formulation and measured for 14 days", "conditions": "in vivo, route iv, time 14 day"}, "[10]": {"assay": "Subchronic toxicity in Wistar rat assessed as diarrhoea at 58 mg/kg, iv administered as pluronic F127 formulation daily for 28 days and observed on days 4 to 5", "assay_type": "organism-based", "conditions": "in vivo, 672 h, time 28 day"}, "[11]": {"assay": "Ratio of AUC (t to infinity) to AUC (0 to infinity) in Soviet Chinchilla rabbit at 8.1 mg/kg, iv administered as pluronic F127 formulation measured upto 72 hrs by high-performance liquid chromatography tandem mass spectrometric analysis", "assay_type": "ADME, organism-based, Oryctolagus cuniculus", "conditions": "in vivo"}, "[12]": {"assay": "Aqueous solubility of compound", "assay_type": "physicochemical"}, "[13]": {"assay": "Chronic toxicity in Soviet Chinchilla rabbit assessed as increase in relative liver mass administered intravenously as pluronic F127 formulation at 4 intervals for 21 days and observed 3 weeks post last injection relative to control", "assay_type": "tissue-based, Oryctolagus cuniculus", "conditions": "in vivo, iv, 2544 h, time 106 day"}, "[14]": {"assay": "Half-life in Albino Wistar rat at 15 mg/kg, iv administered as pluronic F127 formulation measured upto 72 hrs by high-performance liquid chromatography tandem mass spectrometric analysis", "assay_type": "ADME, organism-based", "conditions": "in vivo"}, "[15]": {"assay": "Acute toxicity in Wistar rat assessed as decrease in body weight administered intravenously as pluronic F127 formulation and measured for 14 days", "conditions": "in vivo, iv, 336 h, dose 15-279 mg/kg, time 14 day"}, "[16]": {"assay": "Chronic toxicity in rat assessed as increase in relative spleen mass at 18.75 mg/kg, iv administered as pluronic F127 formulation at 4 intervals for 21 days and observed 3 weeks post last injection relative to control", "assay_type": "organism-based", "conditions": "in vivo, 2544 h, time 106 day"}, "[17]": {"assay": "MRT (0 to t) in Soviet Chinchilla rabbit at 8.1 mg/kg, iv administered as pluronic F127 formulation measured upto 72 hrs by high-performance liquid chromatography tandem mass spectrometric analysis", "assay_type": "ADME, organism-based, Oryctolagus cuniculus", "conditions": "in vivo"}, "[18]": {"assay": "Acute toxicity in ICR mouse assessed as violation of motor activity in hind limb administered intravenously as pluronic F127 formulation and measured for 14 days", "conditions": "in vivo, iv, 336 h, dose 183-960 mg/kg, time 14 day"}, "[19]": {"assay": "AUC (0 to infinity) in Albino Wistar rat at 15 mg/kg, iv administered as pluronic F127 formulation measured upto 72 hrs by high-performance liquid chromatography tandem mass spectrometric analysis", "assay_type": "ADME, organism-based", "set-up": "dose 15 mg/kg, time < 72 hrs, route iv", "conditions": "in vivo"}, "[20]": {"assay": "AUC (0 to t) in Soviet Chinchilla rabbit at 8.1 mg/kg, iv administered as pluronic F127 formulation measured upto 72 hrs by high-performance liquid chromatography tandem mass spectrometric analysis", "assay_type": "ADME, organism-based, Oryctolagus cuniculus", "set-up": "dose 8.1 mg/kg, time < 72 hrs, route iv", "conditions": "in vivo"}, "[21]": {"assay": "Acute toxicity in ICR mouse assessed as coprostasis at 183 to 960 mg/kg, iv administered as pluronic F127 formulation and measured for 14 days", "assay_type": "organism-based", "conditions": "in vivo, 336 h, dose 183-960 mg/kg, time 14 day"}, "[22]": {"assay": "Ratio of AUC (t to infinity) to AUC (0 to infinity) in Albino Wistar rat at 15 mg/kg, iv administered as pluronic F127 formulation measured upto 72 hrs by high-performance liquid chromatography tandem mass spectrometric analysis", "assay_type": "ADME, organism-based", "conditions": "in vivo"}, "[23]": {"assay": "Chronic toxicity in rat assessed as increase in relative mass of adrenal gland administered intravenously as pluronic F127 formulation at 4 intervals for 21 days and observed 3 weeks post last injection relative to control", "assay_type": "tissue-based", "conditions": "in vivo, iv, 2544 h, time 106 day"}, "[24]": {"assay": "Stability of the compound in pH 5.5 buffer measured upto 96 hrs by LC-MS based mass spectrometric analysis", "assay_type": "physicochemical", "conditions": "pH 5.5, 96 h"}, "[25]": {"assay": "Chronic toxicity in rat assessed as increase in relative mass of pancreas administered intravenously as pluronic F127 formulation at 4 intervals for 21 days and observed 3 weeks post last injection relative to control", "assay_type": "tissue-based", "conditions": "in vivo, iv, 2544 h, time 106 day"}, "[26]": {"assay": "Volume of distribution in Soviet Chinchilla rabbit at 8.1 mg/kg, iv administered as pluronic F127 formulation measured upto 72 hrs by high-performance liquid chromatography tandem mass spectrometric analysis", "assay_type": "ADME, organism-based, Oryctolagus cuniculus", "conditions": "in vivo"}, "[27]": {"assay": "Chronic toxicity in rat assessed as reduction in number of crossed squares at 22.5 mg/kg, iv administered as pluronic F127 formulation at 4 intervals for 21 days and observed 3 weeks post last injection", "assay_type": "organism-based", "conditions": "in vivo, 2544 h, time 106 day"}, "[28]": {"assay": "Selectivity ratio of CC50 for cytotoxicity against human PC-3 cells to CC50 for cytotoxicity against human 22Rv1 cells"}}, "note": "“And” between values parts separate entries of the source, which are not always exact repeats. Equal values may be shown once.", "data": [{"smiles": "CC(=O)O[C@@]12CO[C@@H]1C[C@H](O)[C@@]1(C)C(=O)[C@H](O)C3=C(C)[C@@H](OC(=O)[C@H](OC(=O)CCCc4cn(CCCNC(=O)[C@H](Cc5ccc(O)cc5)NC(=O)[C@H](Cc5ccccc5)NC(=O)CCC(=O)NCCCCCC(=O)N(CCCC[C@H](NC(=O)N[C@@H](CCC(=O)O)C(=O)O)C(=O)O)Cc5cccc(Cl)c5)nn4)[C@@H](NC(=O)OC(C)(C)C)c4ccccc4)C[C@@](O)([C@@H](OC(=O)c4ccccc4)[C@H]21)C3(C)C", "values": [{"measurement": "inhibition in vivo at 10 mg/kg", "setting": "[1]", "value": 88, "unit": "%"}, {"measurement": "Activity", "setting": "[2]", "value": "Toxic"}, {"measurement": "Activity", "setting": "[3]", "value": "Toxic"}, {"measurement": "inhibition in vivo at 10 mg/kg", "setting": "[4]", "value": 87, "unit": "%"}, {"measurement": "Activity", "setting": "[5]", "value": "Toxic"}, {"measurement": "inhibition in vivo at 20 mg/kg", "setting": "[6]", "value": 85, "unit": "%"}, {"measurement": "LD50 at 336 h", "setting": "[7]", "value": "409 mg/kg and 210 µmol/kg"}, {"measurement": "Activity", "setting": "[8]", "value": "Toxic"}, {"measurement": "MTD at 336 h", "setting": "[9]", "value": 15, "unit": "mg/kg"}, {"measurement": "Activity", "setting": "[10]", "value": "Toxic"}, {"measurement": "Ratio AUC", "setting": "[11]", "value": 12, "unit": "%"}, {"measurement": "solubility", "setting": "[12]", "value": 130, "unit": "µg/mL"}, {"measurement": "Activity", "setting": "[13]", "value": "Toxic"}, {"measurement": "half-life", "setting": "[14]", "value": 0.997, "unit": "h"}, {"measurement": "Activity", "setting": "[15]", "value": "Toxic"}, {"measurement": "Activity", "setting": "[16]", "value": "Toxic"}, {"measurement": "MRT last at 72 h", "setting": "[17]", "value": 7.4, "unit": "h"}, {"measurement": "Activity", "setting": "[18]", "value": "Toxic"}, {"measurement": "AUC(0-inf)", "setting": "[19]", "value": 34, "unit": "µg·h/mL"}, {"measurement": "AUC(0-t) at 72 h", "setting": "[20]", "value": 253, "unit": "µg·h/mL"}, {"measurement": "Activity", "setting": "[21]", "value": "Toxic"}, {"measurement": "Ratio AUC", "setting": "[22]", "value": 11, "unit": "%"}, {"measurement": "Activity", "setting": "[23]", "value": "Toxic"}, {"measurement": "Stability", "setting": "[24]", "value": "Unstable"}, {"measurement": "Activity", "setting": "[25]", "value": "Toxic"}, {"measurement": "Vd", "setting": "[26]", "value": 0.332, "unit": "L/kg"}, {"measurement": "Activity", "setting": "[27]", "value": "Toxic"}, {"measurement": "Selectivity ratio", "setting": "[28]", "value": 1}]}]}
